Test results taken from US5624673A, “Cosmetic or pharmaceutical composition containing a prunella extract” (priority 1993, dated 1997).
“And” between values parts separate entries of the source, which are not always exact repeats. Equal values may be shown once.

System: erythema caused by ultraviolet
Test: Anti-inflammatory activity on the erythema caused by ultraviolet
Assay type: in vivo, Dunkin Hartley guinea-pigs
Conditions: 1% in hydrocerine
Method: This is investigated using 41 female Dunkin Hartley guinea-pigs weighing 400 to 450 g, divided into 6 groups of 6 and one group of 5 guinea-pigs.
For one week before the start of the experiment, the animals are kept at a temperature of 20° plus or minus 1° C. and at a hygrometry of 50% plus or minus 10% and with 12 h of light per day. On the day before the experiment, the animals are carefully shaved on the back using an AESCULAP shaver equipped with a 1/10 mm comb, and then shaved gently on both sides using a Braun razor. A depilating cream is subsequently applied (to a thickness of about 2 mm) and allowed to work for 15 min.
The cream is removed with a wooden spatula and the guinea-pigs are then rinsed with tepid water and dried.
The guinea-pigs then receive the same irradiation on both sides, the area of the irradiated regions being 2 cm^2. The right side receives the test product, the product being spread beyond the 2 cm^2 so as to make it possible to observe any redness which might be due to the product and which would mask an antiphlogistic effect. The left side receives the placebo.
Application of the placebo to the left side enables the effect of UV to be measured under the same conditions on the zones treated with the product and on the untreated zones. This also makes it possible to see any action of the placebo and to assess, in comparison with the placebo, the zone to which the product has been applied.
The products are applied immediately after irradiation and then every 2 h up to 6 h after irradiation.
The amount applied is not measured but is spread uniformly over the whole region (about 1 mg).
The irradiation device used consists of a Biotronic UV312-365 mercury lamp (Vilbert-Loumat). The device for measuring the UV energy, which consists of a photoelectric cell measuring the luminous power of the UV, is fixed to a support at the center of the irradiated zone. This cell is connected to a radiometer on which the desired energy--in this case 2.16 J/cm^2 of UVB (distance from guinea-pig to lamp=20 cm)--is programmed. The lamp switches off automatically once the total amount of energy has been emitted.
This irradiation causes an erythema equal to 3 plus or minus 0.5 (see scale) at 6 h.
20 min before irradiation, the animals are anesthetized with an intraperitoneal dose of 0.5 ml/kg of pentobarbital sodium.
Six hours after irradiation, the erythema in each region is evaluated macroscopically according to the following scale:
0 ............... no erythema
1 ............... slight but visible erythema
2 ............... clearly visible erythema
3 ............... substantial erythema
One guinea-pig with a score of 1 according to the above notation, one guinea-pig with a score of 2 and one guinea-pig with a score of 3 are singled out after having been thoroughly evaluated as such, and are taken as standard references so that half-unit scores can be awarded. A guinea-pig not evaluated with 1 (standard reference) and not evaluated with 2 will be given a score of 1.5.
The results obtained are used to calculate the percentage activity according to the following formula: [formula]
The tested extracts according to the invention are in a concentration of 0.2% by weight in the gel. The indomethacin is in a concentration of 1% in the hydrocerine.

COc1ccc2c(c1)c(CC(=O)O)c(C)n2C(=O)c1ccc(Cl)cc1 [Indomethacin, indomethacin]
difference (UV+placebo)-(UV+product), individual animal: 2.5 and 2 and 3 | Erythema score, product side (individual animal) (6 h after UVB 2.16 J/cm^2, scale 0-3): 0.5 and 1 and 0 | Erythema score, product side, mean (SD 0.41, placebo mean 2.9, significant at 0.1% (Student t 11.18)): 0.4 | difference (UV+placebo)-(UV+product), mean (SD 0.5): 2.5 | protection (percentage activity) (significant at 0.1%): 86.2%
